Data: ChEMBL document CHEMBL1201862, “PubChem BioAssay data set” (2004)
The source made the active and inactive calls.

What was measured:
[1] = Counterscreen for AddAB inhibitors: absorbance-based bacterial cell-based high throughput dose response assay for inhibitors of bacterial viability. [Related pubchem assays (depositor defined):AID435030, AID449728, AID449731, AID488942, AID488955, AID488956]; assay type: functional
Exodeoxyribonuclease V = biological target: T1, Exodeoxyribonuclease V (Escherichia coli (strain K12), UniProt P04993+P07648+P08394); assay: E. coli RecBCD inhibitors, dose response, counter-screen for AddAB inhibitor project, absorbance, V66 E. coli, mutant T4 phage (AID 492957); assay type: functional, cell-based, Escherichia coli str. K-12 substr. MG1655
T1 sequence (P04993 whole entry): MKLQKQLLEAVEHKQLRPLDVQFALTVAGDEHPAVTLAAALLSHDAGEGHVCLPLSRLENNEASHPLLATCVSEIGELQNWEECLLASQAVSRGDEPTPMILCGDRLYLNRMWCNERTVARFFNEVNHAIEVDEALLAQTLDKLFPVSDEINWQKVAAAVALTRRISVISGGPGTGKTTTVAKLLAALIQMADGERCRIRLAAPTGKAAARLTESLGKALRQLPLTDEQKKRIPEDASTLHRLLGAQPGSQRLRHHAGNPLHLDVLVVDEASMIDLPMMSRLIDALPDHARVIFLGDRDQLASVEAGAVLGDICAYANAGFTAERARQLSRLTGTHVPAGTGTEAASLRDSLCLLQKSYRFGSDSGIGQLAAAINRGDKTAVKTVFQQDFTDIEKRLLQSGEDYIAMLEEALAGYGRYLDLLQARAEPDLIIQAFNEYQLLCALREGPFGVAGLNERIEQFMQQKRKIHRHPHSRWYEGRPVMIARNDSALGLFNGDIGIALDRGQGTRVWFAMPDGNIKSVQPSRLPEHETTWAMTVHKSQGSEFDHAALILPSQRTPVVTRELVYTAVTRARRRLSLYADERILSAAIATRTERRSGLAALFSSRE
T1 sequence (P07648 whole entry): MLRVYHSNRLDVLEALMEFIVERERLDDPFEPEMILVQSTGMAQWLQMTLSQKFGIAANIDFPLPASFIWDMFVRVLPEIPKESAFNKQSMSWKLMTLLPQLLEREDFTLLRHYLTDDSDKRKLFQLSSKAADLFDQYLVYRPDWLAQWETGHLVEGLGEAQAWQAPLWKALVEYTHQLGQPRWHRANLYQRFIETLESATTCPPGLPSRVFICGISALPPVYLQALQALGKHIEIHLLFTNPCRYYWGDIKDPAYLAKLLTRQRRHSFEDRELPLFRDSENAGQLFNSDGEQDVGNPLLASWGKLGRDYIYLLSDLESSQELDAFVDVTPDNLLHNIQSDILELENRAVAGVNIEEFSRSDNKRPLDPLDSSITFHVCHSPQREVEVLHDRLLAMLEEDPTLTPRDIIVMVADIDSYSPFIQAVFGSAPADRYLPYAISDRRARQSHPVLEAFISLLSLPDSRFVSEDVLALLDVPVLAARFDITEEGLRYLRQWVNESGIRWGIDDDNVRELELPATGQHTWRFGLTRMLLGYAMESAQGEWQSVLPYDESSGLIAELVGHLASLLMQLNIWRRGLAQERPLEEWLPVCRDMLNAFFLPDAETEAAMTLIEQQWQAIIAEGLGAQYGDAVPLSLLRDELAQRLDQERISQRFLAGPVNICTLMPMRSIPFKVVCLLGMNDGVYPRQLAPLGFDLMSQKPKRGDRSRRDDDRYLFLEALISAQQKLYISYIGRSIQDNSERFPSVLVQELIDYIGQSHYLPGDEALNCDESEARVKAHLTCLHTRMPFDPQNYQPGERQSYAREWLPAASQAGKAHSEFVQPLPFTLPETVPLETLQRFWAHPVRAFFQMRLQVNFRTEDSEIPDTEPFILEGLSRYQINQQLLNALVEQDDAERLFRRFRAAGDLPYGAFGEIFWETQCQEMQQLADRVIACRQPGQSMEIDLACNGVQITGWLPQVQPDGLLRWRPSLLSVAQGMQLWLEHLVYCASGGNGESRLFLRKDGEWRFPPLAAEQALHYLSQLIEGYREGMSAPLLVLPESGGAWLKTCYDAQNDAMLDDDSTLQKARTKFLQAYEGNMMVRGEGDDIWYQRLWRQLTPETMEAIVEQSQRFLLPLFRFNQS
T1 sequence (P08394 whole entry): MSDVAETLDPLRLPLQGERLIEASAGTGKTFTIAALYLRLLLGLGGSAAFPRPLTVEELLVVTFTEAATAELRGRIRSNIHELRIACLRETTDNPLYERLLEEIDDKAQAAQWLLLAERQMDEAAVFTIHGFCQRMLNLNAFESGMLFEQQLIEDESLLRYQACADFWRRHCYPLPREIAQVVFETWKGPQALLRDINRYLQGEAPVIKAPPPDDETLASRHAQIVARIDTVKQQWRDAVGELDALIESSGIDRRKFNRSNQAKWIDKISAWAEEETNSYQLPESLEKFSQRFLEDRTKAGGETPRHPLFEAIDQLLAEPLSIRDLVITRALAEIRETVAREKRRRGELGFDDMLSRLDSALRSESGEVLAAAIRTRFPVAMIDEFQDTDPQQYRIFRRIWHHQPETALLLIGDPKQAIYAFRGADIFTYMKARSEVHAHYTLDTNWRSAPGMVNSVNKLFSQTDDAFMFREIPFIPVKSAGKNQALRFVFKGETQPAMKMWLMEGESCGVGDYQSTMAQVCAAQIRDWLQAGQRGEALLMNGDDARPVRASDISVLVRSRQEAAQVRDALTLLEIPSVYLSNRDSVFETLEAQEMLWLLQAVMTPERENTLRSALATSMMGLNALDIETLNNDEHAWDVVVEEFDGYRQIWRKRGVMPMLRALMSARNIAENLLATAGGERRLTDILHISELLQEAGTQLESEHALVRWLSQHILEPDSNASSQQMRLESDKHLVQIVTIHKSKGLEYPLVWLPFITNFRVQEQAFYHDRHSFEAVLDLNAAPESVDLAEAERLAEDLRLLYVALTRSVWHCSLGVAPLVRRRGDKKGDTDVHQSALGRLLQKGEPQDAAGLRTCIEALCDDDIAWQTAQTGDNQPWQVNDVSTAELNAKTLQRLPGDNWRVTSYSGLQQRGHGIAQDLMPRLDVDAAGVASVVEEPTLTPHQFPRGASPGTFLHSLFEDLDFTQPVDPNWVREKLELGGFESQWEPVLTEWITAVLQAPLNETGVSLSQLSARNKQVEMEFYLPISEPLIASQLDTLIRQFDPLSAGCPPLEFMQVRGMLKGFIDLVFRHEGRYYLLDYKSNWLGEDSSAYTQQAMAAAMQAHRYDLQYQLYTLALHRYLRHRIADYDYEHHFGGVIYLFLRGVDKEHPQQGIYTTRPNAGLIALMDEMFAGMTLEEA

Cytochrome P450 3A4 = Cytochrome P450 3A4 (Homo sapiens, UniProt P08684);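 also: CYP3A4 tested as one member of a cytochrome P450 panel screen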
Cytochrome P450 3A4, sequence (P08684 whole entry): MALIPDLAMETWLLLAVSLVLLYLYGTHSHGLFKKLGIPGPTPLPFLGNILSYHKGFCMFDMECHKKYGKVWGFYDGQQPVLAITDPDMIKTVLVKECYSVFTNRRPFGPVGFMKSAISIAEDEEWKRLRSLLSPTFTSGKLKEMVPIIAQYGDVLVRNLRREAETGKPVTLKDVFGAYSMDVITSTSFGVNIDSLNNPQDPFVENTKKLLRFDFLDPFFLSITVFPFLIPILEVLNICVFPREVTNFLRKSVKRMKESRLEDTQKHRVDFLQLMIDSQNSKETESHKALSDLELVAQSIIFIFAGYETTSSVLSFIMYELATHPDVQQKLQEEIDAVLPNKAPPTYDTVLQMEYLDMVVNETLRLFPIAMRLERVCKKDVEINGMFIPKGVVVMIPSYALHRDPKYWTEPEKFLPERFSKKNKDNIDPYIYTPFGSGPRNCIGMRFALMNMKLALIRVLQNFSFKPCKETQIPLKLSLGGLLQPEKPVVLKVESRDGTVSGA

[2] = A Cell Based Secondary Assay To Explore Cytotoxicity of Compounds that Sensitize Mycobacterium Tuberculosis to Beta-Lactam Antibiotics.; assay type: functional
[3] = biological target: T2, High affinity choline transporter 1 (Homo sapiens, UniProt Q9GZV3); assay: CHT inhibitors, dose response, cell-based, 5-point CRC, membrane potential dye (AID 504840); assay type: functional
T2 sequence (Q9GZV3 whole entry): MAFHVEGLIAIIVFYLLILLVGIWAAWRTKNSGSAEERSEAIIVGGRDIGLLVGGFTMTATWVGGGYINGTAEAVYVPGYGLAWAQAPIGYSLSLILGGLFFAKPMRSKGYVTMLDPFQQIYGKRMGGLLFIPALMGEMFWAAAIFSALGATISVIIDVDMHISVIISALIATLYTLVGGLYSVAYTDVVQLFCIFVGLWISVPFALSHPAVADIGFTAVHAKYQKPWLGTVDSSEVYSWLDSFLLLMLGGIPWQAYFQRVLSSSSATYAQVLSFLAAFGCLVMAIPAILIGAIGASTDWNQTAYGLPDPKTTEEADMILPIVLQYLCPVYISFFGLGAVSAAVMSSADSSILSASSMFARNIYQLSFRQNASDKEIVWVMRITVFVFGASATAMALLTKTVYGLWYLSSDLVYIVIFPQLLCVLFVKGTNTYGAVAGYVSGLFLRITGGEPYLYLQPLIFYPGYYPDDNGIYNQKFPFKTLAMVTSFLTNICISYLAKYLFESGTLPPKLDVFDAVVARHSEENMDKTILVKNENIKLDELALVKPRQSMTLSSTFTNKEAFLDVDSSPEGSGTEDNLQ

Cytochrome P450 2C9 = Cytochrome P450 2C9 (Homo sapiens, UniProt P11712)
Cytochrome P450 2C9, sequence (P11712 whole entry): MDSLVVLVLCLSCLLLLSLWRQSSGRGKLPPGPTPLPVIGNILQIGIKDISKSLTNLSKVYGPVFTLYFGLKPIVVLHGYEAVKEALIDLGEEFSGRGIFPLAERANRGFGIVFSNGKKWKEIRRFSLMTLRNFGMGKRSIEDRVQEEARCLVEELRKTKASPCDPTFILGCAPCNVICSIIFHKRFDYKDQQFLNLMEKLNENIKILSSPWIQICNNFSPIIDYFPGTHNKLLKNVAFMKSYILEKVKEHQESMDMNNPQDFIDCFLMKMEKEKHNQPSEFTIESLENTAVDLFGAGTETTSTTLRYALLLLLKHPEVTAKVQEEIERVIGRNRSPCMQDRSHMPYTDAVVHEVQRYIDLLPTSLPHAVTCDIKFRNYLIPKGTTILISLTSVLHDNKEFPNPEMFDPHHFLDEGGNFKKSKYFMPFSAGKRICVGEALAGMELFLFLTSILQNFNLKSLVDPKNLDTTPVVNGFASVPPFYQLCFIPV

[4] = biological target: Glucose-6-phosphate 1-dehydrogenase (Homo sapiens, UniProt P11413); assay: human G6PD enzyme inhibitors, dose response, selectivity assay for P. falciparum G6PD inhibitor project, biochemical, fluorescence (AID 504792); assay type: functional
Glucose-6-phosphate 1-dehydrogenase, sequence (P11413 whole entry): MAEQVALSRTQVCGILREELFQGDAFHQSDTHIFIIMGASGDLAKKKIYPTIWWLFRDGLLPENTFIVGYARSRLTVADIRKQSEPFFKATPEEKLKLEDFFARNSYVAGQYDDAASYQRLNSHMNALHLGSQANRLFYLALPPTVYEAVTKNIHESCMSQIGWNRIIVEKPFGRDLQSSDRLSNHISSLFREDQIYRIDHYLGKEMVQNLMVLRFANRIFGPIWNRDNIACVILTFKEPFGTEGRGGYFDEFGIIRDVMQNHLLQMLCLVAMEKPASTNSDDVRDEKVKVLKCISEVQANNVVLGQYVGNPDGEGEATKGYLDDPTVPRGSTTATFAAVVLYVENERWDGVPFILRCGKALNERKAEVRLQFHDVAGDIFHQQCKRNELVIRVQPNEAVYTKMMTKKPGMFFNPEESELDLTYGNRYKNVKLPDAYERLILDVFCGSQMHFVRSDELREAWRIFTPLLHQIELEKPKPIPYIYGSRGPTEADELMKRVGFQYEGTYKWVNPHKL

[5] = biological target: Kappa-type opioid receptor (Homo sapiens, UniProt P41145); assay: SAR analysis of small molecule agonists of the kappa opioid receptor via a luminescent beta-arrestin assay - Set 3. [Related pubchem assays (depositor defined):AID1777, AID1785, AID1786, AID1966, AID2133, AID2136, AID2284, AID2500]; assay type: functional
Kappa-type opioid receptor, sequence (P41145 whole entry): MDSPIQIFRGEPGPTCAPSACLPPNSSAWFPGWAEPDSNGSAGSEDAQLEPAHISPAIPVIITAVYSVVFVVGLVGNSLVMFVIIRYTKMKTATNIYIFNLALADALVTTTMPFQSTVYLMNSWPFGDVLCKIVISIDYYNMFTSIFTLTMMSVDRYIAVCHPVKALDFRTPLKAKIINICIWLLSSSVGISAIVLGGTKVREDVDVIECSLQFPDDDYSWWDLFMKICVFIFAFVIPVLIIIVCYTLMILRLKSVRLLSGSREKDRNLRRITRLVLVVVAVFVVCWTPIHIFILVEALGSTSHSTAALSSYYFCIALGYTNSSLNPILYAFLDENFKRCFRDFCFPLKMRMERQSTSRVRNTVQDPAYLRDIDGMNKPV

[6] = biological target: T3, Tyrosine-protein phosphatase non-receptor type 7 (Homo sapiens, UniProt P35236); assay: redox-dependent HePTP inhibition, mechanism study, biochemical, fluorescence (AID 2068); assay type: functional
T3 sequence (P35236 whole entry): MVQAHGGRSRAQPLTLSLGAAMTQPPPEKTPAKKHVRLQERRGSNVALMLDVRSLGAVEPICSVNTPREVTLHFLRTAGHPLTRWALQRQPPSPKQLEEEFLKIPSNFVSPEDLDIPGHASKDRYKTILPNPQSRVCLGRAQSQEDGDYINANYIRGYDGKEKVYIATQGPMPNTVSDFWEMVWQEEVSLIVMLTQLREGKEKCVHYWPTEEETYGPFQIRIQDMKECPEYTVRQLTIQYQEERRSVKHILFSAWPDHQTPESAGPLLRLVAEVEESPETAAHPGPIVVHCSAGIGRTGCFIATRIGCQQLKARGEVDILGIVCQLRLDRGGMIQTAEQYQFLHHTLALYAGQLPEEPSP

[7] = biological target: T4, Dual specificity protein phosphatase 6 (Rattus norvegicus, UniProt Q64346); assay type: functional;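 also: confirmatory in vitro dose-response testing of MKP-3 inhibition; recombinant His-tagged MKP-3 made in E. coli BL21 with OMFP substrate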
T4 sequence (Q64346 whole entry): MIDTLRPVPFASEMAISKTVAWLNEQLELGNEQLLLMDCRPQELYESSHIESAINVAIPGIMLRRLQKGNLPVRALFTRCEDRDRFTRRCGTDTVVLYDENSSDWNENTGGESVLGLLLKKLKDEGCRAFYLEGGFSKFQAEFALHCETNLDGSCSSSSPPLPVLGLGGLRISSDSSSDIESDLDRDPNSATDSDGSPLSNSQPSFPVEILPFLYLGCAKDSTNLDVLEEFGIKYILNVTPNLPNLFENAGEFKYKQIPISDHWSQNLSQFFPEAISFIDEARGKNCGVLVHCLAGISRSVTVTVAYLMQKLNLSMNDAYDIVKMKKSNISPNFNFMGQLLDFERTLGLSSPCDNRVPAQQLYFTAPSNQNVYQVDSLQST

[8] = biological target: T5, Dual specificity protein phosphatase 3 (Homo sapiens, UniProt P51452); assay: SAR VHR1 absorbance Assay for In Vitro dose response studies. [Related pubchem assays (depositor defined):AID1654, AID1661, AID1878, AID1992, AID2004]
T5 sequence (P51452 whole entry): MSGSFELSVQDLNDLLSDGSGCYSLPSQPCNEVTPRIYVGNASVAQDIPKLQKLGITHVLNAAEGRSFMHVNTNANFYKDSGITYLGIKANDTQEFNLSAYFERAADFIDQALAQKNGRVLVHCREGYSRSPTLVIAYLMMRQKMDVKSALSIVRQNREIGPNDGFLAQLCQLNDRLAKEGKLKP

[9] = biological target: T5, Dual specificity protein phosphatase 3; assay: SAR VHR1 Fluorescent Assay for In Vitro dose response studies. [Related pubchem assays (depositor defined):AID1654, AID1661, AID1878, AID1992, AID2004, AID2070, AID2085]; assay type: functional
Keap1/Nrf2 = Keap1/Nrf2 (Homo sapiens, UniProt Q14145); assay: Keap1-Nrf2 protein-protein interaction inhibitors, dose response, biochemical, fluorescence polarization, cherry-picked samples (AID 588683)
Keap1/Nrf2, sequence (Q16236 whole entry): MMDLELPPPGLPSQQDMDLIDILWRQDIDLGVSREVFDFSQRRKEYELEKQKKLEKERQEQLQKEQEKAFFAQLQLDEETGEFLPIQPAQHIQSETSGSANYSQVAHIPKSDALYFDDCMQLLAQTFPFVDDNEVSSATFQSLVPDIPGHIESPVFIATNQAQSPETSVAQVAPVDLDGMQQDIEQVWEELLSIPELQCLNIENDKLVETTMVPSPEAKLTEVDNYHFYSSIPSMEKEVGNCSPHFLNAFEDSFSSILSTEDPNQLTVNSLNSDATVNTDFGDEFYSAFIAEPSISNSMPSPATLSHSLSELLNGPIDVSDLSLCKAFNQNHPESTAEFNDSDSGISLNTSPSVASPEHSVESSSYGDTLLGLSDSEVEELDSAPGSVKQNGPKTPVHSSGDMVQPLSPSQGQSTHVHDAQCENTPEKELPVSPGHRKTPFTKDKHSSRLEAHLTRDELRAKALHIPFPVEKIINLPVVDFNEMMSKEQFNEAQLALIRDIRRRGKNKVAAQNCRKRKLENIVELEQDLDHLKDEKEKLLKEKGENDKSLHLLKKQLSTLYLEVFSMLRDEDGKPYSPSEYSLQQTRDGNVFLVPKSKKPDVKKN
Keap1/Nrf2, sequence (Q14145 whole entry): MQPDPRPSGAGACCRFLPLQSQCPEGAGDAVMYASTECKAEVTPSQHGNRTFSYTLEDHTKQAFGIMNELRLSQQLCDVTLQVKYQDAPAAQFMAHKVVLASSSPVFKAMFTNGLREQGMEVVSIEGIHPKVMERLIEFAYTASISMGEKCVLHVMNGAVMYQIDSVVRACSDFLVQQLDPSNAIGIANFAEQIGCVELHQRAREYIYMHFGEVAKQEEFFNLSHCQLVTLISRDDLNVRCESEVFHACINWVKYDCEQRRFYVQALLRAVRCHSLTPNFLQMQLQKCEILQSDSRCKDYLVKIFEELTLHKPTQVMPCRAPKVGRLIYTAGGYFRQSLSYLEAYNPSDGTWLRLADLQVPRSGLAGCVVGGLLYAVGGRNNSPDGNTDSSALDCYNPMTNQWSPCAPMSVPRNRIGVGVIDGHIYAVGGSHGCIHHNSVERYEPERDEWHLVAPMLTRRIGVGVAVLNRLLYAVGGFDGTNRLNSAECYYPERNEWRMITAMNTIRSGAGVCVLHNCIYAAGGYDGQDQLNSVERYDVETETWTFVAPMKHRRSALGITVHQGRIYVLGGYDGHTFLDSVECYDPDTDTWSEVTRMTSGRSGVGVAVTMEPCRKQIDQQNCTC

[10] = biological target: T4, Dual specificity protein phosphatase 6; assay: MKP-3 phosphatase inhibitors, primary screen, biochemical, rat enzyme, in vitro (AID 425)
[11] = biological target: T5, Dual specificity protein phosphatase 3; assay: VHR1 phosphatase inhibitors, biochemical (AID 1878)
[12] = biological target: T5, Dual specificity protein phosphatase 3; assay: VHR1 phosphatase inhibitors, primary screen, biochemical, absorbance, uHTS (AID 1654)

## Cc1cc2c(c(=O)o1)C(c1ccc([N+](=O)[O-])o1)C(C#N)=C(N)O2 (centres undefined)
[1]
  IC50: 102 µM (inactive)
Exodeoxyribonuclease V
  IC50: > 119 µM (inactive)

## Cn1cccc1C(=O)N1CCC2(CC1)CN(c1ccccn1)C2
Cytochrome P450 3A4
  AC50: inconclusive

## CN1CCN(S(=O)(=O)c2ccc(NC(=O)c3ccc(Br)s3)cc2)CC1
[2]
  CC50: > 40 µM (active)
[3]
  IC50: 16.6 µM (active)

## COc1ccc(C(=O)NC2CCCCC2)cc1OC1CCN(C(C)C)CC1
[3]
  IC50: 17.4 µM (active)

## COc1cccc(Cn2c(=O)c(-c3ccc(Cl)cc3)nc3cnc(N4CCN(C)CC4)nc32)c1
Cytochrome P450 3A4
  AC50: inconclusive

## CC(=O)N1CCC2(CC1)CCN(C(c1ccccc1)c1ccccc1)CC2
Cytochrome P450 2C9
  AC50: 39.8 µM (inconclusive)
Cytochrome P450 3A4
  AC50: inconclusive

## COc1c(O)c(O)c2oc(-c3ccccc3)cc(=O)c2c1OC
[1]
  IC50: > 119 µM (inactive)
[4]
  IC50: > 80 µM (inactive)
Exodeoxyribonuclease V
  IC50: > 119 µM (inactive)

## Cc1cccc(C)c1OCc1cc(C(=O)N(C)Cc2nc3ccccc3[nH]2)no1
[1]
  IC50: > 119 µM (inactive)
Exodeoxyribonuclease V
  IC50: > 119 µM (inactive)

## Clc1ccc(CSc2nnc(-c3ccccn3)n2Cc2cccnc2)cc1Cl
[5]
  EC50: 0.756 µM (active)

## Clc1ccc(CSc2nnc(-c3ccccn3)n2Cc2ccccc2)cc1Cl
[5]
  EC50: 1.24 µM (active)

## CC(C)NC(=S)c1cn(CCOc2ccccc2)c2ccccc12
[6]
  IC50: > 100 µM (inactive)
[7]
  IC50: > 100 µM (inactive)
[8]
  IC50: > 100 µM (inactive)
[9]
  IC50: > 100 µM (inactive)

## Cc1cc(C)c(C)c(S(=O)(=O)Nc2cccc(S(=O)(=O)Nc3ccccc3C(=O)O)c2)c1C
Keap1/Nrf2
  AC50: > 52 µM (inactive)

## Oc1c(Br)cc(/C=N/n2c(S)nnc2-c2ccccc2)c(Br)c1O
[10]
  IC50: 90.3 µM (active)
[11]
  IC50: 2.39 µM (active)
[12]
  IC50: < 1.23 µM (inactive)
